SMILES strings stand for the structures. Bounds are passed on as bounds.

Data on two molecules can be found in US11708318B2, “Polymorphic forms of RAD1901-2HCL” (Radius Pharmaceuticals, Inc., priority 2017, dated 2023).

Format in all cases: physicochemical
Data set [1] is described as follows: Storage at elevated temperature/humidity, analysed by XRPD. The following applies: <40% RH, 8 hr. On the procedure: Samples 1 and 2 were characterized by XRPD at various conditions. XRPD patterns were collected for the samples at ambient condition as the samples were provided; at variable temperature (VT-XRPD); at variable humidity (VH-XRPD); after the samples were exposed to 40° C./75% RH for 1 week and 25° C./97% RH for 1 week, respectively; and after a GVS measurement wherein the samples were exposed to 0-90% RH. Samples 1 and 2 were also characterized by ^1H NMR, TGA, DSC, KF, IC, GVS (exposed to 0-90% RH), PLM, SEM, and HPLC (Table 5).

Data set [2] is described as follows: Solubility assessment of amorphous RAD1901-2HCl. The following applies: thermodynamic from solid, read-out: Solubility assessment 10 vol. On the procedure: In a scale-up preparation of amorphous RAD1901-2HCl, RAD1901-2HCl (600 mg) was dissolved in water (20 vol., 12 mL) and filtered to remove any remaining solid particles. The solution was then aliquoted into 24 HPLC vials, frozen in a dry ice/acetone bath and the solvent removed by lyophilisation. Solids produced by lyophilization were used directly in solubility assessment and polymorph screens in Example 4.
Amorphous RAD1901-2HCl prepared as described in Example 3B was used directly in solubility assessment and polymorph screens (Table 15). XRPD patterns were further obtained for amorphous RAD1901-2HCl prepared using other solvents.

Data set [3] is described as follows: Solubility assessment of amorphous RAD1901-2HCl in water/organic solvent system. To be noted: organic solvent or mixture, thermodynamic from solid. The procedure:
Samples of amorphous RAD1901-2HCl were prepared in water/organic solvent mixtures containing varying ratios of water. The organic solvents chosen were anhydrous ethanol, methanol and ethyl acetate. The percentage of water in the water/organic solvent mixtures was varied between 0 and 10% (v/v) in order to place a limit on the level of water that can be present during production processes, and to retain formation of Form 1. Above this water activity limit, the hydrated Form 3 will be obtained, as shown by GVS experiments (see FIGS. 6G and 20A). It should be noted that samples prepared in ethyl acetate, were either slurried in anhydrous ethyl acetate, or in water saturated ethyl acetate.
The water activity values for each water/organic solvent mixture are provided in Table 16, and were calculated using the reference given in Bell, Halling, Enzyme Microbiol. Technol. 1997, 20, 471, incorporated herein by reference.

Turning to `CCNCCc1ccc(CN(CC)c2cc(OC)ccc2[C@@H]2CCc3cc(O)ccc3C2)cc1.Cl.Cl` [Form 3], the “Solid form after exposure to <40% RH for 8 hr” value in data set [1] is listed as “Form 2”.

As for `CCNCCc1ccc(CN(CC)c2cc(OC)ccc2[C@@H]2CCc3cc(O)ccc3C2)cc1.Cl.Cl` [amorphous RAD1901-2HCl], the solubility (in general, the concentration that dissolves in the medium under given conditions) in data set [2] (organic solvent or mixture, 1,2-dimethoxyethane, sample ID B16) is less than 100 mg/mL; in data set [2] (organic solvent or mixture, 1,4-Dioxane, sample ID B14), less than 100 mg/mL; in data set [2] (organic solvent or mixture, 1-propanol, sample ID B8) it was less than 100 mg/mL; in data set [2] (organic solvent or mixture, 2-propanol, sample ID B6), less than 100 mg/mL; in data set [2] (organic solvent or mixture, 10% water/EtOH, sample ID B22) it was more than 100 mg/mL; in data set [2] (organic solvent or mixture, 10% water/IPA, sample ID B23) it was less than 100 mg/mL. Also, the solubility in data set [2] (organic solvent or mixture, 10% water/THF, sample ID B24) is less than 100 mg/mL; in data set [2] (organic solvent or mixture, Acetone, sample ID B9), less than 100 mg/mL; in data set [2] (organic solvent or mixture, Acetonitrile, sample ID B20), less than 100 mg/mL; in data set [2] (organic solvent or mixture, Dichloromethane, sample ID B18) it was less than 100 mg/mL; in data set [2] (organic solvent or mixture, Dimethyl sulfoxide, sample ID B11) it was more than 100 mg/mL; in data set [2] (organic solvent or mixture, Ethanol, sample ID B10) it was less than 100 mg/mL. The solubility is less than 100 mg/mL in data set [2] (organic solvent or mixture, Ethyl acetate, sample ID B3); less than 100 mg/mL in data set [2] (organic solvent or mixture, Isopropyl acetate, sample ID B4); less than 100 mg/mL in data set [2] (organic solvent or mixture, MEK, sample ID B7); less than 100 mg/mL in data set [2] (organic solvent or mixture, MIBK, sample ID B5); less than 100 mg/mL in data set [2] (organic solvent or mixture, Methanol, sample ID B19); less than 100 mg/mL in data set [2] (organic solvent or mixture, Nitromethane, sample ID B21). Moreover, the solubility in data set [2] (organic solvent or mixture, Propyl acetate, sample ID B2) was less than 100 mg/mL; in data set [2] (organic solvent or mixture, TBME, sample ID B13), less than 100 mg/mL; in data set [2] (organic solvent or mixture, Tetrahydrofuran, sample ID B17), less than 100 mg/mL; in data set [2] (organic solvent or mixture, Toluene, sample ID B15), less than 100 mg/mL; in data set [2] (organic solvent or mixture, n-Heptane, sample ID B1) it was less than 100 mg/mL; in data set [2] (Water, sample ID B12), more than 100 mg/mL. Moreover, the solubility in data set [3] (EtOH/H2O (90:10), EtOH/H2O (90:10), sample ID C1, read-out: Solubility assessment 10 vol.) was more than 100 mg/mL; in data set [3] (EtOH/H2O (95:5), EtOH/H2O (95:5), sample ID C2, read-out: Solubility assessment 10 vol.), less than 100 mg/mL; in data set [3] (EtOH/H2O (98:2), EtOH/H2O (98:2), sample ID C3, read-out: Solubility assessment 10 vol.), less than 100 mg/mL; in data set [3] (EtOH/H2O (99:1), EtOH/H2O (99:1), sample ID C4, read-out: Solubility assessment 10 vol.), less than 100 mg/mL; in data set [3] (MeOH/H2O (90:10), MeOH/H2O (90:10), sample ID C5, read-out: Solubility assessment 10 vol.), more than 100 mg/mL; in data set [3] (MeOH/H2O (95:5), MeOH/H2O (95:5), sample ID C6, read-out: Solubility assessment 10 vol.) it was more than 100 mg/mL. The solubility in data set [3] (MeOH/H2O (98:2), MeOH/H2O (98:2), sample ID C7, read-out: Solubility assessment 10 vol.) is less than 100 mg/mL; in data set [3] (MeOH/H2O (99:1), MeOH/H2O (99:1), sample ID C8, read-out: Solubility assessment 10 vol.), less than 100 mg/mL; in data set [3] (anhydrous ethyl acetate, Ethyl acetate (anhydrous), sample ID C9, read-out: Solubility assessment 10 vol.), less than 100 mg/mL; in data set [3] (anhydrous ethyl acetate, Ethyl acetate (anhydrous), sample ID C9, read-out: Solubility assessment 20 vol), less than 50 mg/mL; in data set [3] (anhydrous ethyl acetate, Ethyl acetate (anhydrous), sample ID C9, read-out: Solubility assessment 30 vol), less than 33.3 mg/mL; in data set [3] (water-saturated ethyl acetate, Water-saturated ethyl acetate, sample ID C10, read-out: Solubility assessment 10 vol.) it was less than 100 mg/mL. The solubility in data set [3] (water-saturated ethyl acetate, Water-saturated ethyl acetate, sample ID C10, read-out: Solubility assessment 20 vol) was less than 50 mg/mL; in data set [3] (water-saturated ethyl acetate, Water-saturated ethyl acetate, sample ID C10, read-out: Solubility assessment 30 vol), less than 33.3 mg/mL.
